Experimental findings from PubChem BioAssay (NCI) are described below.

“And” between values parts separate entries of the source, which are not always exact repeats. Equal entries are not always repeated.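 Five compound concentrations were applied to cells in 96-well plates for 48 hours; endpoints were derived by simple linear interpolation of the resulting dose-response curve. GI50: concentration for 50% inhibition of growth. TGI: concentration producing complete growth inhibition.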 A value given as a limit tells only on which side of the number the result lay.

Among the test systems are T-47D breast; NCI-H522 lung; HCT-15 colon; UACC-257 melanoma; NCI-H460 lung; MOLT-4 leukemia; TK-10 renal; OVCAR-8 ovarian; MDA-MB-231 breast; A498 renal.
Common to all, as to assay: NCI tumour cell line growth inhibition, 48 h

`Clc1ccc2nc(CC3CCCC3)[nH]c2c1`: the TGI in the experiment with T-47D breast was 72.5 µM; with NCI-H522 lung, 21.2 µM; in the experiment with HCT-15 colon it was 22.9 µM; with UACC-257 melanoma, more than 100 µM; with NCI-H460 lung, 46.9 µM; in the experiment on MOLT-4 leukemia, 35 µM. For the same molecule, the results for the TGI in the experiment with TK-10 renal, in the experiment on OVCAR-8 ovarian and in the experiment on MDA-MB-231 breast were 70.2 µM, more than 100 µM and 43.6 µM, respectively.
`CN1CCN(/C(N)=C(\C#N)C(=O)Nc2ccccc2)CC1`: the TGI with T-47D breast, with HCT-15 colon, in the experiment on UACC-257 melanoma, with NCI-H460 lung, in the experiment on MOLT-4 leukemia and with A498 renal was more than 100 µM each time. Further, the TGI in the experiment with OVCAR-8 ovarian was more than 100 µM.
For the molecule `C=C1C(=O)O[C@@H]2OC3(C)CCC4C(C)CCC1C42OO3` (some centres not stated), the TGI in the experiment with NCI-H522 lung is 3.88 µM and 3.16 µM; in the experiment on HCT-15 colon it was 9.95 µM and 4.02 µM; in the experiment on UACC-257 melanoma, 14.1 µM and 12 µM; in the experiment with NCI-H460 lung, 8.04 µM and 5.58 µM; with MOLT-4 leukemia, 5.96 µM and 5.53 µM; with A498 renal, 6.56 µM and 10.6 µM. In addition, the TGI in the experiment with OVCAR-8 ovarian was 16.2 µM and 11.7 µM. In addition, the GI50 in the experiment with HCT-15 colon is 2.3 µM; in the experiment on MOLT-4 leukemia, 2.23 µM; with A498 renal it was 2.57 µM; with OVCAR-8 ovarian, 3.47 µM.
Consider `O=C1OC(c2ccc(Cl)cc2)(c2ccc(Cl)cc2)c2c1ccc1ccccc21`, for which the TGI with NCI-H522 lung, in the experiment with HCT-15 colon, in the experiment on UACC-257 melanoma, in the experiment with NCI-H460 lung, in the experiment on MOLT-4 leukemia and in the experiment on TK-10 renal was more than 100 µM each time. Further, the TGI in the experiment with A498 renal and with OVCAR-8 ovarian was more than 100 µM in each case.
Consider `CO[C@H]1C[C@H](n2cc(C)c(=O)[nH]c2=O)O[C@@H]1CO`, for which the TGI with HCT-15 colon, in the experiment with UACC-257 melanoma, in the experiment with NCI-H460 lung, with MOLT-4 leukemia, in the experiment on TK-10 renal and with A498 renal was more than 100 µM in each case. Moreover, the TGI in the experiment with OVCAR-8 ovarian and in the experiment with MDA-MB-231 breast was more than 100 µM throughout.
Regarding `N/C(=N\N=C\c1cc2c(cc1Cl)OCO2)NO`, the TGI in the experiment with NCI-H522 lung, in the experiment on HCT-15 colon, in the experiment with UACC-257 melanoma, with NCI-H460 lung, in the experiment on MOLT-4 leukemia and in the experiment on A498 renal was more than 100 µM in each case. The same molecule gave a TGI in the experiment with OVCAR-8 ovarian of more than 100 µM.
Regarding `CCCCNC(=S)c1ccc(OC(=O)Nc2ccc(Cl)cc2)cc1`, the TGI with T-47D breast, in the experiment on NCI-H522 lung, in the experiment with HCT-15 colon, with UACC-257 melanoma, in the experiment on NCI-H460 lung and in the experiment with MOLT-4 leukemia was more than 100 µM throughout. Also, the TGI in the experiment with A498 renal and in the experiment on OVCAR-8 ovarian was more than 100 µM each time.
Take `COC(=O)c1c(O)ccc2c1c1c(n2Cc2ccccc2OC)C(=O)c2ccccc2C1`: the TGI with T-47D breast, with HCT-15 colon, with UACC-257 melanoma, in the experiment on NCI-H460 lung, in the experiment with MOLT-4 leukemia and in the experiment with TK-10 renal was more than 100 µM in each case. Also, the TGI in the experiment with A498 renal, in the experiment with OVCAR-8 ovarian and in the experiment on MDA-MB-231 breast was more than 100 µM throughout.
Regarding `N#CCSc1c(-c2ccccc2)c(=O)n(-c2ccccc2)c(=S)n1-c1ccccc1`, the TGI in the experiment with T-47D breast, in the experiment with NCI-H522 lung, in the experiment on HCT-15 colon, with UACC-257 melanoma, in the experiment with NCI-H460 lung and in the experiment on MOLT-4 leukemia was more than 100 µM throughout. Besides, the TGI in the experiment with TK-10 renal and with OVCAR-8 ovarian was more than 100 µM in each case.
For `CCCCCCCC(=O)OCC(C[As](=O)(O)O)OC(=O)CCCCCCC` (configuration not stated), the TGI in the experiment on NCI-H522 lung was found to be 26.6 µM; in the experiment with HCT-15 colon, 28.5 µM; in the experiment with UACC-257 melanoma, 28.1 µM; with MOLT-4 leukemia, 51.9 µM; in the experiment with A498 renal, 33.2 µM; in the experiment on OVCAR-8 ovarian, 30.3 µM.
On to `COc1cccc2c1-c1c(OC)cccc1SS2`, for which the TGI in the experiment with NCI-H522 lung is 64.5 µM; with HCT-15 colon, 33.3 µM; in the experiment with UACC-257 melanoma it was 35.9 µM; in the experiment with NCI-H460 lung, 43.8 µM; in the experiment on MOLT-4 leukemia, 38.1 µM; with TK-10 renal, 51.1 µM. Besides, the results for the TGI in the experiment with A498 renal, in the experiment with OVCAR-8 ovarian and in the experiment with MDA-MB-231 breast were 27.4 µM, 72.6 µM and 56.1 µM, respectively.
For `Cc1c(O)c(=O)ccn1CCc1c[nH]c2ccccc12`, the TGI in the experiment with T-47D breast was 78 µM; with HCT-15 colon it was more than 100 µM; with UACC-257 melanoma, 15.5 µM; in the experiment on NCI-H460 lung, 19.4 µM; with MOLT-4 leukemia it was more than 100 µM; in the experiment with TK-10 renal, more than 100 µM. The TGI with OVCAR-8 ovarian stood at 73.6 µM; in the experiment on MDA-MB-231 breast it was 6.47 µM.
For the molecule `CCOc1cc2c(cc1O)CC[C@@H]1[C@@H]2CC[C@]2(C)C(OS(=O)OC3CC[C@@H]4[C@H]5CCc6cc(O)c(OCC)cc6[C@@H]5CC[C@@]34C)CC[C@@H]12` (some centres not stated), the TGI with T-47D breast was more than 100 µM; with HCT-15 colon it was 15.3 µM; in the experiment with UACC-257 melanoma, more than 42.8 µM; in the experiment with NCI-H460 lung, more than 34.2 µM; in the experiment with MOLT-4 leukemia, more than 68 µM; in the experiment on TK-10 renal, more than 100 µM. The TGI in the experiment with A498 renal amounted to 36.6 µM; in the experiment with OVCAR-8 ovarian, 10 µM; with MDA-MB-231 breast it was 29.8 µM.
Take `CCC/C(Cl)=N\OC(=O)Nc1ccc(F)c([N+](=O)[O-])c1`: the TGI in the experiment on NCI-H522 lung turned out to be 4.3 µM; with HCT-15 colon, 34.8 µM; in the experiment with UACC-257 melanoma it was 34.2 µM; in the experiment with NCI-H460 lung, 34.9 µM; in the experiment on MOLT-4 leukemia, 11.2 µM; with TK-10 renal it was 32 µM. The TGI in the experiment on A498 renal is 48.4 µM; in the experiment on OVCAR-8 ovarian, 31.3 µM; in the experiment on MDA-MB-231 breast, 36.8 µM.
As for `Cc1ccc(S(=O)(=O)C2c3nc4ccccc4cc3-c3nc4ccccc4nc32)cc1` (configuration not stated), the TGI in the experiment on NCI-H522 lung, with HCT-15 colon, in the experiment with UACC-257 melanoma, in the experiment on MOLT-4 leukemia, with TK-10 renal and with A498 renal was more than 100 µM throughout. The same molecule yielded a TGI in the experiment on OVCAR-8 ovarian of more than 100 µM.
Take `CC(O)c1cc2c(s1)C(=O)c1scc(C(C)O)c1C2=O` (configuration not stated): the TGI in the experiment with T-47D breast turned out to be 4.53 µM; with NCI-H522 lung, 2.56 µM; with HCT-15 colon, 1.13 µM; in the experiment on UACC-257 melanoma it was 0.356 µM; in the experiment with NCI-H460 lung it was 2.1 µM; with MOLT-4 leukemia it was 5.4 µM. The TGI came out at 3.37 µM with TK-10 renal, 4.36 µM in the experiment with A498 renal and 0.857 µM with OVCAR-8 ovarian.
